Reference: patent US20030194784A1, “DNA encoding methymycin and pikromycin” (priority 2001, published 2003)

What was measured:
[1] = system: Streptococcus pyogenes; assay: Antibiotic activity by filter paper disc on agar plates; type: cell-based; details: for inhibition zone around disc (antibiotic activity against Streptococcus pyogenes): 20 μL of 1.6 mM sample in MeOH on sterilized filter paper disc, Mueller-Hinton agar plates, overnight at 37° C.; for activity against Streptococcus pyogenes: purified compounds, S. pyogenes grown on Mueller-Hinton agar plates
Experimental: The antibiotic activity of a compound of formula (13) and (14) against Streptococcus pyogenes was examined by separately applying 20 μL of each sample (1.6 mM in MeOH) to sterilized filter paper discs which were placed onto the surface of S. pyogenes grown on Mueller-Hinton agar plates (Mangahas, 1996).

[2] = molecular target: A. eutrophus PHA synthase (Cupriavidus necator, UniProt P23608); details: read-out: apparent Km value (substrate concentration at half-optimal velocity); enzyme concentration constant at 0.95 mg/ml; 40 or 200 μl assay volumes; estimated from FIG. 10
[3] = Storage stability of purified PHA synthase (activity remaining); type: physicochemical
From the text: PHA synthase purified from insect cells appears to be relatively stable.

[4] = molecular target: the molecule itself; assay: size exclusion chromatography, native MW (about 100-160 kDa and about 50-80 kDa forms)

**Q.** What does the source list for `CC[C@H]1OC(=O)[C@H](C)[C@@H](O[C@@H]2O[C@H](C)C[C@H](N(C)C)[C@H]2O)[C@@H](C)C[C@@H](C)C(=O)/C=C/[C@]1(C)O` [compound of formula (1), methymycin]?
**A.** inhibition zone around disc (antibiotic activity against Streptococcus pyogenes) [1]: clearly visible inhibition zones; activity against Streptococcus pyogenes [1]: clearly visible inhibition zones

**Q.** Which Km [2] does the source give for 3-hydroxybutyrate CoA [HBCoA] here?
**A.** 2500 µM

**Q.** Which “inhibition zone around disc (antibiotic activity against Streptococcus pyogenes)” value [1] does the source give for `CCC1OC(=O)C(C)C(OC2OC(C)CC(N(C)C)C2O[C@@H]2O[C@H](CO)[C@@H](O)[C@H](O)[C@H]2O)C(C)CC(C)C(=O)C=CC1(C)O` (stereo partly drawn) [compound of formula (13), C-2′β-glucosylated methymycin] here?
**A.** no such clearings were discernible

**Q.** What does the source list for `C[C@@H]1C[C@H](N(C)C)[C@@H](O)[C@H](O[C@H]2[C@@H](C)C[C@@H](C)C(=O)/C=C/[C@@H](C)[C@@H]([C@@H](C)O)OC(=O)[C@@H]2C)O1` [compound of formula (2), neomethymycin]?
**A.** inhibition zone around disc (antibiotic activity against Streptococcus pyogenes) [1]: clearly visible inhibition zones; activity against Streptococcus pyogenes [1]: clearly visible inhibition zones

B1: A. eutrophus PHA synthase (phbC gene product), produced in insect cells with a baculovirus vector (enzyme)
chain: AAASTQEGKSQPFKVTPGPFDPATWLEWSRQWQGTEGNGHAAASGIPGLDALAGVKIAPAQLGDIQQRYMKDFSALWQAMAEGKAEATGPLHDRRFAGDAWRTNLPYRFAAAFYLLNARALTELADAVEADAKTRQRIRFAISQWVDAMSPANFLATNPEAQRLLIESGGESLRAGVRNMMEDLTRGKISQTDESAFEVGRNVAVTEGAVVFENEYFQLLQYKPLTDKVHARPLLMVPPCINKYYILDLQPESSLVRHVVEQGHTVFLVSWRNPDASMAGSTWDDYIEHAAIRAIEVARDISGQDKINVLGFCVGGTIVSTALAVLAARGEHPAASVTLLTTLLDFADTGILDVFVDEGHVQLREATLGGGAGAPCALLRGLELANTFSFLRPNDLVWNYVVDNYLKGNTPVPFDLLFWNGDATNLPGPWYCWYLRHTYLQNELKVPGKLTVCGVPVDLASIDVPTYIYGSREDHIVPWTAAYASTALLANKLRFVLGASGHIAGVINPPAKNKRSHWTNDALPESPQQWLAGAIEHHGSWWPDWTAWLAGQAGAKRAAPANYGNARYRAIEPAPGRYVKAKA
notes: The 64 kDa band; On the blots it was denatured (SDS-PAGE); The N-terminus is heterogeneous (starts at A7 or S10); also called PHB synthase; intact PHB synthase (band a)
**Q.** Which results are given for B1?
**A.** synthase activity remained after storage ([3]; after 7 weeks stored at −20° C. in the presence of 50% glycerol): approximately 75%; synthase activity remained after storage ([3]; after 7 weeks stored in liquid N2): approximately 50%; binding result [4]: binds
